The source of these data is paper PMC9369311, “Examination of Intracellular GPCR-Mediated Signaling with High Temporal Resolution” (International Journal of Molecular Sciences, 2022).

Values joined by “and” are separate entries in the source; they are usually repeats but may differ in a detail not shown here. Equal entries are not always repeated. Where two headings read alike, the source gives them in different places.

The target in this assay is T1, DmOctα1B receptor (Drosophila melanogaster, UniProt Q7JQF1).
T1 construct: expressed in transfected cells
T1 sequence (Q7JQF1 1-645): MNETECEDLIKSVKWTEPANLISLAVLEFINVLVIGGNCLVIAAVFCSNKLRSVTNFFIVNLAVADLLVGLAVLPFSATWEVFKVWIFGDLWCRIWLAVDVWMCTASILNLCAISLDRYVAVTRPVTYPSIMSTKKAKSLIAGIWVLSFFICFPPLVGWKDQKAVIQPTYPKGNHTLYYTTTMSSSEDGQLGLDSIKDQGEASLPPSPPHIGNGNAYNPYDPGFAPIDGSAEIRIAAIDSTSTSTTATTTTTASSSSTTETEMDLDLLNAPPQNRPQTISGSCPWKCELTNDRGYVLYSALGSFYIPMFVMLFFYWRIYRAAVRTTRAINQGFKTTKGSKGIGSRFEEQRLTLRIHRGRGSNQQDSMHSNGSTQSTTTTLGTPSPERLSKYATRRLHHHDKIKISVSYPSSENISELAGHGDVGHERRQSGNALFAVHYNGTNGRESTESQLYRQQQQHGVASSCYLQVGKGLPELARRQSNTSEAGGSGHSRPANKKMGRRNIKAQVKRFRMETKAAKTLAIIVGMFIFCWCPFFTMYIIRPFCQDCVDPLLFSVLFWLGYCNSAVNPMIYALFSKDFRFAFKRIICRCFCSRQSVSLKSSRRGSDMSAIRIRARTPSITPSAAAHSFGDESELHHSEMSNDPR
The assay can be described thus: Ca2+ fluorimetry in plate reader (96 MWP), DmOctα1B-expressing HEK293 cells. The class given is cell-based. Here is the method: Both the DmOctα1B receptor- and DmOctβ1 receptor-expressing (=flpTM-DmOctβ1) cell lines were initially investigated via Ca^2+ fluorimetric measurements in a plate reader. The cells were seeded in 96 well plates and loaded with Fluo-4, enabling the detection of changes in [Ca^2+]i. The Fluo-4 was excited at 485 nm and the fluorescence emission was recorded at 510 nm. To overcome the cAMP degradation by cell-endogenous phosphodiesterases, the DmOctβ1-expressing cells were treated with 100 µM iso-butylmethylxanthine (IBMX). Prior to the ligand application, the basal fluorescence (F0) was recorded and the concentration–response curves were generated by plotting the changes in fluorescence ((Fmax − F0)/F0 = ΔF/F0) against the ligand concentrations. For a better comparison, the fluorescence intensities were normalized. The maximal change in fluorescence for each of the stimulation series was defined as 100%. The EC50 values were determined from a nonlinear regression plot (four parameters) using GraphPad Prism v5.04 for analysis and display.
In order to omit loading with the fluorescent dye, both the DmOctα1B-expressing cells and flpTM-DmOctβ1 cells were stably transfected with a construct encoding the cytosolic version of GCaMP3.0. As in the previous experiment with Fluo-4, the GCaMP3.0-expressing cell lines were seeded in 96 well plates and incubated with the same series of increasing octopamine concentrations. The GCaMP3.0 was excited at 485 nm and the fluorescence emission was recorded at 510 nm. The basal fluorescence (F0) was recorded before adding the octopamine concentration series. The fluorescence intensities were normalized to the maximal change in fluorescence, defined as 100%. The concentration–response curves were generated with GraphPad Prism v5.04. In Figure 1, the concentration–response curves obtained with Fluo-4 and GCaMP3.0 are depicted for both of the receptors. […]

Take `NCC(O)c1ccc(O)cc1` (stereo not drawn) [octopamine]: the EC50 was ~12 nM and 12 nM (DmOctα1B cells loaded with Fluo-4, 96 MWP plate reader, read-out: EC50); 14 nM (DmOctα1B-GCaMP3.0 cells, 96 MWP plate reader, read-out: EC50); 15.8 nM (DmOctα1B-GCaMP3.0 cells, 96 MWP, given as logEC50 (negative), read-out: logEC50 ± SD (converted)).
